# Results published in patent US20210379066A1, “COMBINATIONS OF POSITIVE ALLOSTERIC MODULATORS AND NICOTINIC ACETYLCHOLINE RECEPTOR AGONISTS FOR TREATING OCULAR CONDITIONS” (Oyster Point Pharma, Inc., priority 2018, published 2021).
# Key:
# [1] = Measured plasma Cmax after nasal spray (Example 4); format: in vivo; conditions: human, inhaled or intranasal; blood plasma of 30 individuals; nasal spray of 1.1% compound 1 free base (2.0% hemi-galactarate dihydrate), 200 microliters total, about 2216 micrograms free base
# Protocol: A dose of a nAChR agonist, or a pharmaceutically acceptable salt thereof, is administered to an individual. Examples of dose and volume ranges are described herein.
# A blood sample is collected from an individual before administration of a nAChR agonist, or a pharmaceutically acceptable salt thereof. After administration of the nAChR agonist, or a pharmaceutically acceptable salt thereof, to the individual, multiple blood samples are collected over a period of time at certain intervals. For instance, blood samples are collected at 10 minutes, 20 minutes, 30 minutes, 1 hour, 2 hours, 3 hours, and 4 hours after administration of the nAChR agonist, or a pharmaceutically acceptable salt thereof.
# Blood samples (4 mL in K2EDTA tubes) are collected from an arm vein into Vacutainer tubes containing K2EDTA. […]
# All pharmacokinetic (PK) analyses and reporting are performed according to generally accepted standard operating procedures and protocol specifications. Pharmacokinetic parameters are calculated by use of generally accepted software tools, for instance Phoenix® WinNonlin® 8.0.
# A plasma concentration time plot is created by plotting the concentration of the nAChR agonist, or pharmaceutically acceptable salt thereof, as a function of time. Cmax is calculated by inspection of an individual's plasma concentration time plot. […] The Cmax is calculated for an individual after a treatment. […]
# human nAChR alpha3beta4 = target: T1, human nAChR alpha3beta4 (Homo sapiens, UniProt P30926+P32297); test: Agonist activity, two-electrode voltage clamp in Xenopus oocytes (Examples 2 and 5); format: cell-based; conditions: versus ACh response
# T1 construct: expressed in transfected cells; host or cells: Xenopus laevis oocytes (cDNA injection)
# T1 sequence (P32297 32-505): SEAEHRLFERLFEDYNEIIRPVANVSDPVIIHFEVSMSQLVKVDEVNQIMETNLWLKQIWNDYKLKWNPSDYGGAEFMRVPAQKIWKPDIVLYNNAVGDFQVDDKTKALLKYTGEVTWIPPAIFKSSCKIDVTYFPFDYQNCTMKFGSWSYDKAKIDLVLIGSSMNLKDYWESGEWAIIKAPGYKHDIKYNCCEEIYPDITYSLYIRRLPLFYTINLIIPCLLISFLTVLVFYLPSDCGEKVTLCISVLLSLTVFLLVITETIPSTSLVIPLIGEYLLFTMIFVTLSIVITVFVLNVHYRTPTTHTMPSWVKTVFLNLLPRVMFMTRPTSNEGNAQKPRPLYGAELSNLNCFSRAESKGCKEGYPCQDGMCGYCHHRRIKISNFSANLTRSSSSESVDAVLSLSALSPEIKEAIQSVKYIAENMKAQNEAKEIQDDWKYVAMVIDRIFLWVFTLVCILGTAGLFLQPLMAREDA
# T1 sequence (P30926 22-498): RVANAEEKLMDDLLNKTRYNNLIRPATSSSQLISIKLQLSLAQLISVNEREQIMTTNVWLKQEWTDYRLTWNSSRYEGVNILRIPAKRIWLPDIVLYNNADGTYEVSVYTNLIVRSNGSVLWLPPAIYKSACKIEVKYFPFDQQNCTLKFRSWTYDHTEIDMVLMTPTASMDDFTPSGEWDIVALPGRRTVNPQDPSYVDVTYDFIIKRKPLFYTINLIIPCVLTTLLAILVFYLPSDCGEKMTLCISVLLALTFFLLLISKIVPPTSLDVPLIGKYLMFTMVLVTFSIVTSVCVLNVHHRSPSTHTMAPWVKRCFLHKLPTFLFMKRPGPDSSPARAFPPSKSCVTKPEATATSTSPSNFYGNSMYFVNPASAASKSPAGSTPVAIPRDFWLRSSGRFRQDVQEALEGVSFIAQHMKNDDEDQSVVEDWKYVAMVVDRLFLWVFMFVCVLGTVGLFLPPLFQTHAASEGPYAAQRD
# Protocol: (§1) All experiments were carried out at human nAChRs expressed in Xenopus oocytes using the method of cDNA expression. Xenopus oocytes were prepared and injected using standard procedures.
# (§2) Briefly, ovaries were harvested from Xenopus Laevis females that have been deeply anesthetized by cooling at 4° C. and Tricaine methanesulfonate (MS-222 at a concentration of 150 mg/L) in sodium bicarbonate (300 mg/L). Once anesthetized the animal was decapitated and pithed following the rules of animal rights from the Geneva canton. A small piece of ovary was isolated for immediate preparation while the remaining part was placed at 4° C. in a sterile Barth solution containing in mM NaCl 88, KCl 1, NaHCO32.4, HEPES 10, MgSO4.7H2O 0.82, Ca(NO3)2.4H2O 0.33, CaCl2.6H2O 0.41, at pH 7.4, and supplemented with 20 μg/ml of kanamycin, 100 unit/ml penicillin. All recordings were performed at 18° C. and cells superfused with OR2 medium containing in mM: NaCl 88, KCl 2.5, HEPES 5, CaCl2.2H2O 1.8, MgCl2.6H2O 1, pH 7.4.
# (§3) Currents evoked by ACh or other agonists were recorded using an automated process equipped with standard two-electrode voltage-clamp configuration (TEVC). Data were captured and analyzed using a HiQScreen proprietary data acquisition and analysis software running under Matlab (Mathworks Inc.).
# (§4) See Example 1. […] The test concentration of acetylcholine chloride was 1280 micromolar.
# (§5) Injections of cDNAs encoding for the human alpha3beta4, alpha3alpha5beta4, alpha4beta2, and alpha7 were performed in at least 95 oocytes were performed using a proprietary automated injection and receptor expression examined at least two days later. Oocytes were poked with two electrodes and their membrane potential maintained, unless indicated, at −80 mV throughout the experiment.
# (§6) A protocol to determine agonistic activity in the oocytes expressing the nAChRs was developed. The cells were exposed to a series of increasing concentrations of a compound agonist for 10 seconds each at two minute intervals. The current evoked from exposure to the agonist at each concentration was recorded. For oocytes expressing alpha7 nAChRs, exposure to the agonist was reduced to 5 seconds. This process was repeated for each agonist tested against each type of nAChR expressing cell.
# (§7) To evaluate the agonistic properties of compound 1 hemi-galactarate dihydrate a protocol of brief exposures to a series of growing concentrations of compound 1 hemi-galactarate dihydrate was used.
# (§8) Agonist Preparation: See Example 1. […] The test concentration of acetylcholine chloride was 1280 micromolar.
# as §5, with “Experimental Procedures: Injections” for “Injections”, “alpha4beta2, alpha4alpha6beta2,” for “alpha4beta2,”, “oocytes” for “oocytes were performed”, “injection device. Cellular” for “injection and”, “expression was” for “expression”
# as §6, with “developed. Oocytes expressing a nAChR subtype were exposed to a brief test pulse of acetylcholine (1280 micromolar) while the holding current and response was evaluated. Cells displaying robust currents were washed for 90 seconds.” for “developed.”, “were then” for “were”, “nAChR” for “compound”, “intervals. The nAChR agonist test concentrations were 0.1, 0.3, 1, 3, 10, 30, 100, 300 (micromolar).” for “intervals.”
# human nAChR alpha4beta2 = target: T2, human nAChR alpha4beta2 (Homo sapiens, UniProt P17787+P43681); test: as above; format: cell-based; conditions: versus ACh response
# T2 construct: expressed in transfected cells; host or cells: Xenopus laevis oocytes (cDNA injection)
# T2 sequence (P43681 29-627 limits assumed): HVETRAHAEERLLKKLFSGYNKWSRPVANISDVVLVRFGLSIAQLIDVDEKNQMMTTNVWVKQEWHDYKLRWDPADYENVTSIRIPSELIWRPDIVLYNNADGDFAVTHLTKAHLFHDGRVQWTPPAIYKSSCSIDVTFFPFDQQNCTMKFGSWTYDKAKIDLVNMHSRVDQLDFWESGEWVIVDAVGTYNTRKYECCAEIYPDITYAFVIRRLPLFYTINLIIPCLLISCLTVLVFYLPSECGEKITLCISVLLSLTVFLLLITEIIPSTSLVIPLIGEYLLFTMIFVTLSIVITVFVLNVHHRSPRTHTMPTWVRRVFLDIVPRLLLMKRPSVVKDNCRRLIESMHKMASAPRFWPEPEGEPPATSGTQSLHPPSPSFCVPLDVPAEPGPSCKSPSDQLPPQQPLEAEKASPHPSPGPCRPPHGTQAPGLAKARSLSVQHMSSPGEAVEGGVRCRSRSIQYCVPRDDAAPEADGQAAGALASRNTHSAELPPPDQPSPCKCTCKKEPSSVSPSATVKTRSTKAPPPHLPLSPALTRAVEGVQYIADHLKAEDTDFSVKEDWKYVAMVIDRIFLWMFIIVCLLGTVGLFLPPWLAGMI
# T2 sequence (P17787 26-502): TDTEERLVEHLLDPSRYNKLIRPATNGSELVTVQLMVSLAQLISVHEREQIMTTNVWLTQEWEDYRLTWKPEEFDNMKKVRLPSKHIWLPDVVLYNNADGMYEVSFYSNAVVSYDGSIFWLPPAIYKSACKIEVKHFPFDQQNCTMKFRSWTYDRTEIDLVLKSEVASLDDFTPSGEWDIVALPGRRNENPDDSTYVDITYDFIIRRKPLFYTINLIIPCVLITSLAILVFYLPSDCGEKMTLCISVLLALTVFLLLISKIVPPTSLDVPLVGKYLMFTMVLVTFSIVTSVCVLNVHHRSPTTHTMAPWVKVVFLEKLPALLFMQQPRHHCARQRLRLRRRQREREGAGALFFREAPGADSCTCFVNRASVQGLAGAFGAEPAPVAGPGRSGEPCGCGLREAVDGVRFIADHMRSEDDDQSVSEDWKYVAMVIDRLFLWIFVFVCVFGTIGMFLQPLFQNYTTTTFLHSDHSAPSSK
# Protocol: as §1, §2, §3, §4, §5, §6, §7, §8
# as §5, with “Experimental Procedures: Injections” for “Injections”, “alpha4beta2, alpha4alpha6beta2,” for “alpha4beta2,”, “oocytes” for “oocytes were performed”, “injection device. Cellular” for “injection and”, “expression was” for “expression”
# as §6, with “developed. Oocytes expressing a nAChR subtype were exposed to a brief test pulse of acetylcholine (1280 micromolar) while the holding current and response was evaluated. Cells displaying robust currents were washed for 90 seconds.” for “developed.”, “were then” for “were”, “nAChR” for “compound”, “intervals. The nAChR agonist test concentrations were 0.1, 0.3, 1, 3, 10, 30, 100, 300 (micromolar).” for “intervals.”
# [2] = target: T3, human nAChR alpha3alpha5beta4 (Homo sapiens, UniProt P30532+P30926+P32297); test: as above; format: cell-based; conditions: versus ACh response
# T3 construct: expressed in transfected cells; host or cells: Xenopus laevis oocytes (cDNA injection)
# T3 sequence (P32297 32-505): as the sequence (P32297 32-505) above
# T3 sequence (P30532 23-468): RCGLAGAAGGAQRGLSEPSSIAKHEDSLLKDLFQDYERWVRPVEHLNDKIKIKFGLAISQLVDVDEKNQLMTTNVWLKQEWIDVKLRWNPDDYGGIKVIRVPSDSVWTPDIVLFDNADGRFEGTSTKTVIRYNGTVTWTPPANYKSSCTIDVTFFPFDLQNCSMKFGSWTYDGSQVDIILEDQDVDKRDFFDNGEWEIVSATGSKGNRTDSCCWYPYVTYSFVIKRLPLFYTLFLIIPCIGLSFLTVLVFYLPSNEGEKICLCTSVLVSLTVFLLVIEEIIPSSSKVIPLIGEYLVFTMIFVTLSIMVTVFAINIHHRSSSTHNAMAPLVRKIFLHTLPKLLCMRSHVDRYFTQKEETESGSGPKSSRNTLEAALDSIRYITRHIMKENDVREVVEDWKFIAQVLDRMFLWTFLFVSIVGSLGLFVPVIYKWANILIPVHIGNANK
# T3 sequence (P30926 22-498): as the sequence (P30926 22-498) above
# Protocol: as §1, §2, §3, §4, §5, §6, §7, §8
# as §5, with “Experimental Procedures: Injections” for “Injections”, “alpha4beta2, alpha4alpha6beta2,” for “alpha4beta2,”, “oocytes” for “oocytes were performed”, “injection device. Cellular” for “injection and”, “expression was” for “expression”
# as §6, with “developed. Oocytes expressing a nAChR subtype were exposed to a brief test pulse of acetylcholine (1280 micromolar) while the holding current and response was evaluated. Cells displaying robust currents were washed for 90 seconds.” for “developed.”, “were then” for “were”, “nAChR” for “compound”, “intervals. The nAChR agonist test concentrations were 0.1, 0.3, 1, 3, 10, 30, 100, 300 (micromolar).” for “intervals.”
# human nAChR alpha7 = target: T4, human nAChR alpha7 (Homo sapiens, UniProt P36544); test: as above; format: cell-based; conditions: versus ACh response
# T4 construct: expressed in transfected cells; host or cells: Xenopus laevis oocytes (cDNA injection)
# T4 sequence (P36544 23-502): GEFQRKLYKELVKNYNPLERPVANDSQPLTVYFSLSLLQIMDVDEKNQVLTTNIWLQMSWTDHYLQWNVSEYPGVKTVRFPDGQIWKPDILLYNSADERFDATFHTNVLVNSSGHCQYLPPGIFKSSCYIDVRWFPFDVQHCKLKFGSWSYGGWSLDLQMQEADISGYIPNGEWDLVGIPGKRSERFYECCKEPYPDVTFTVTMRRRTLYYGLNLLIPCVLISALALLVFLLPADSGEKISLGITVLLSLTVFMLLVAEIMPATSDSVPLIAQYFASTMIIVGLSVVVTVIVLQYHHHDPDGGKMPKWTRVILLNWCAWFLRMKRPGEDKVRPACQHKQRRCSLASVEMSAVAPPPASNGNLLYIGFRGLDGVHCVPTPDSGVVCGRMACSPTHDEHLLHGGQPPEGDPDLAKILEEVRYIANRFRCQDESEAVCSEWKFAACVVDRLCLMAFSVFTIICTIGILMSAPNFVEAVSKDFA
# Protocol: as §1, §2, §3, §4, §5, §6, §7, §8
# as §5, with “Experimental Procedures: Injections” for “Injections”, “alpha4beta2, alpha4alpha6beta2,” for “alpha4beta2,”, “oocytes” for “oocytes were performed”, “injection device. Cellular” for “injection and”, “expression was” for “expression”
# as §6, with “developed. Oocytes expressing a nAChR subtype were exposed to a brief test pulse of acetylcholine (1280 micromolar) while the holding current and response was evaluated. Cells displaying robust currents were washed for 90 seconds.” for “developed.”, “were then” for “were”, “nAChR” for “compound”, “intervals. The nAChR agonist test concentrations were 0.1, 0.3, 1, 3, 10, 30, 100, 300 (micromolar).” for “intervals.”
# [3] = target: T5, human nAChR alpha4alpha6beta2 (Homo sapiens, UniProt P17787+P43681+Q15825); test: Agonist activity, two-electrode voltage clamp in Xenopus oocytes (Example 5); format: cell-based; conditions: versus ACh response
# T5 construct: expressed in transfected cells; host or cells: Xenopus laevis oocytes (cDNA injection)
# T5 sequence (P43681 29-627 limits assumed): as the sequence (P43681 29-627 limits assumed) above
# T5 sequence (Q15825 26-494): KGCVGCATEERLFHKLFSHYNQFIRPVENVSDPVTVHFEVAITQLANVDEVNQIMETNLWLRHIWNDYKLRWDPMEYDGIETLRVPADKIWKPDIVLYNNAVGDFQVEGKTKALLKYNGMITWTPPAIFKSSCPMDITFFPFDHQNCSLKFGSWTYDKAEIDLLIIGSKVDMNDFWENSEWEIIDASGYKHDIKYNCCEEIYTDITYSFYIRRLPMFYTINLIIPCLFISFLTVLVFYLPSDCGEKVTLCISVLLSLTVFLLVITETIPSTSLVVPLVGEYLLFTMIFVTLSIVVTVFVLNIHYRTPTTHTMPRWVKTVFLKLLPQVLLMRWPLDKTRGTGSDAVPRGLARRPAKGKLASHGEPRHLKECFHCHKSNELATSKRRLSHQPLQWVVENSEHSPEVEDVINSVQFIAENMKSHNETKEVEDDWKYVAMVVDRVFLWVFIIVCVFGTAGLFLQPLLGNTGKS
# T5 sequence (P17787 26-502): as the sequence (P17787 26-502) above
# Protocol: as §1, §2, §3, §8
# as §5, with “Experimental Procedures: Injections” for “Injections”, “alpha4beta2, alpha4alpha6beta2,” for “alpha4beta2,”, “oocytes” for “oocytes were performed”, “injection device. Cellular” for “injection and”, “expression was” for “expression”
# as §6, with “developed. Oocytes expressing a nAChR subtype were exposed to a brief test pulse of acetylcholine (1280 micromolar) while the holding current and response was evaluated. Cells displaying robust currents were washed for 90 seconds.” for “developed.”, “were then” for “were”, “nAChR” for “compound”, “intervals. The nAChR agonist test concentrations were 0.1, 0.3, 1, 3, 10, 30, 100, 300 (micromolar).” for “intervals.”
smiles,measurement,setting,value
"C(=C\[C@H]1CCNC1)/c1cncnc1 [Compound 1, (R)-5-((E)-2-pyrrolidin-3-ylvinyl)pyrimidine]",Cmax,[1],2.92 ng/mL
same,agonist character,human nAChR alpha3beta4,full agonist
same,agonist character,human nAChR alpha4beta2,full agonist
same,agonist character,[2],full agonist
same,agonist character,human nAChR alpha7,weak partial agonist
same,agonist character,[3],full agonist
